From PubChem BioAssay (NCI) come the findings set out here.

Where “and” joins values, the source holds several entries; their conditions need not be identical. Equal entries are not always repeated.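 These data come from cells grown in 96-well plates and exposed to compound for 48 hours at five concentrations. GI50: concentration for 50% inhibition of growth. Definition used: TGI = concentration required for complete inhibition of growth.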

The test system of the first assay is HCT-15 colon. Description: DTP human tumour cell line panel, 48 h.
With `COc1cc(/C=N/NC(=O)c2ccc(C(F)(F)F)nc2Nc2ccc(Cl)cc2C)ccc1O`, the GI50 was 0.987 µM and the total growth inhibition concentration (TGI) worked out at 10.4 µM.

In the case of `O=C1CC(c2ccc3c(c2)OCO3)Nc2ccccc21` (stereo not given), the GI50 is 5.61 µM and the TGI was found to be 31 µM.

`O=C1/C(=C/c2ccccc2)CN(C(=O)C(Cl)(Cl)Cl)C/C1=C\c1ccccc1`: the concentration for total growth inhibition (TGI) is 3.58 µM.

`O=C1C(Cl)=C(Nc2cccc(Cl)c2)C(=O)N1Cc1ccc(Cl)cc1Cl`: the GI50 is 0.0981 µM and the TGI was found to be 8.84 µM.

In the case of `COC1CCC(N2C(=O)CNc3ncc(-c4ccc(C(C)(C)O)nc4)nc32)CC1` (stereo not given), the GI50 is 0.732 µM and 0.293 µM; the TGI was above 36.1 µM.

Compound `COC1CCC2C(NS(=O)(=O)c3ccc(C)cc3)CCCC2O1` (stereo not given) (tested in a mixture with another compound) yielded a total growth inhibition concentration (TGI) above 34.5 µM.

Turning to `NNC(=O)Nc1cccnc1`, the total growth inhibition concentration (TGI) was above 100 µM.

For `Cc1cc(I)cc(CN(C)CCCCN2CCCCC2)c1O`, the GI50 was 6.08 µM and the TGI was found to be 25.8 µM.

`CC1=C(C(=O)NCc2ccccc2)C(/C=C/c2ccccc2)C(C(=O)NCc2ccccc2)=C(C)N1` came in with a concentration for total growth inhibition (TGI) above 100 µM.

The compound `O=S1(=O)c2ccccc2NC(c2ccc3ccccc3c2)CC1c1ccccc1F` (stereo not given) returned a TGI above 100 µM.

`C=C1C(=O)C23CC1CCC2C12CO[C@@H]4OCC(C)(CC[C@@H]1OC3=O)C42` (stereo not given in full) showed a TGI of 7.88 µM.

The compound `CN/N=C(/Cc1occc(=O)c1O)C(=O)Nc1ccccc1C` came in with a TGI above 100 µM.

Another assay concerns HL-60(TB) leukemia. Description: DTP human tumour cell line panel, 48 h.
As to `COc1cc(/C=N/NC(=O)c2ccc(C(F)(F)F)nc2Nc2ccc(Cl)cc2C)ccc1O`, the GI50 is 1.7 µM and the TGI was found to be 4.41 µM.

As to `O=C1CC(c2ccc3c(c2)OCO3)Nc2ccccc21` (stereo not given), the GI50 was 3.16 µM and the TGI was above 100 µM.

Compound `O=C1/C(=C/c2ccccc2)CN(C(=O)C(Cl)(Cl)Cl)C/C1=C\c1ccccc1` gave a TGI of 0.524 µM.

Take `O=C1C(Cl)=C(Nc2cccc(Cl)c2)C(=O)N1Cc1ccc(Cl)cc1Cl`: the GI50 is 7.66 µM and the total growth inhibition concentration (TGI) is above 100 µM.

As for `COC1CCC(N2C(=O)CNc3ncc(-c4ccc(C(C)(C)O)nc4)nc32)CC1` (stereo not given), the GI50 is 2.88 µM and 1.09 µM; the TGI is > 10 µM and 30.8 µM.

For the compound `COC1CCC2C(NS(=O)(=O)c3ccc(C)cc3)CCCC2O1` (stereo not given) (tested in a mixture with another compound), the total growth inhibition concentration (TGI) amounted to 18.5 µM.

Compound `NNC(=O)Nc1cccnc1` had a TGI above 100 µM.

In the case of `Cc1cc(I)cc(CN(C)CCCCN2CCCCC2)c1O`, the GI50 was 10.9 µM and the TGI was 26.3 µM.

With `CC1=C(C(=O)NCc2ccccc2)C(/C=C/c2ccccc2)C(C(=O)NCc2ccccc2)=C(C)N1`, the TGI is above 100 µM.

Regarding `O=S1(=O)c2ccccc2NC(c2ccc3ccccc3c2)CC1c1ccccc1F` (stereo not given), the TGI is above 100 µM.

The compound `C=C1C(=O)C23CC1CCC2C12CO[C@@H]4OCC(C)(CC[C@@H]1OC3=O)C42` (stereo not given in full) came in with a TGI of 19.5 µM.

For the compound `CN/N=C(/Cc1occc(=O)c1O)C(=O)Nc1ccccc1C`, the TGI was above 100 µM.

Another assay deals with HT29 colon. Description: DTP human tumour cell line panel, 48 h.
Consider `COc1cc(/C=N/NC(=O)c2ccc(C(F)(F)F)nc2Nc2ccc(Cl)cc2C)ccc1O`, for which the GI50 was 4.45 µM and the TGI was determined as 16.2 µM.

As for `O=C1CC(c2ccc3c(c2)OCO3)Nc2ccccc21` (stereo not given), the GI50 is 7.76 µM and the TGI amounted to 33.1 µM.

Turning to `O=C1/C(=C/c2ccccc2)CN(C(=O)C(Cl)(Cl)Cl)C/C1=C\c1ccccc1`, the total growth inhibition concentration (TGI) was 2.75 µM.

Take `O=C1C(Cl)=C(Nc2cccc(Cl)c2)C(=O)N1Cc1ccc(Cl)cc1Cl`: the GI50 was 0.971 µM and the concentration for total growth inhibition (TGI) stood at 14.7 µM.

Turning to `COC1CCC(N2C(=O)CNc3ncc(-c4ccc(C(C)(C)O)nc4)nc32)CC1` (stereo not given), the GI50 was 1.83 µM and 0.472 µM; the TGI is above 38.4 µM.

For the compound `COC1CCC2C(NS(=O)(=O)c3ccc(C)cc3)CCCC2O1` (stereo not given) (tested in a mixture with another compound), the concentration for total growth inhibition (TGI) is above 34.5 µM.

With `NNC(=O)Nc1cccnc1`, the concentration for total growth inhibition (TGI) is above 100 µM.

For `Cc1cc(I)cc(CN(C)CCCCN2CCCCC2)c1O`, the GI50 was 3.21 µM and the TGI came to 14.2 µM.

With `CC1=C(C(=O)NCc2ccccc2)C(/C=C/c2ccccc2)C(C(=O)NCc2ccccc2)=C(C)N1`, the TGI is above 100 µM.

As to `O=S1(=O)c2ccccc2NC(c2ccc3ccccc3c2)CC1c1ccccc1F` (stereo not given), the TGI was above 100 µM.

As for `C=C1C(=O)C23CC1CCC2C12CO[C@@H]4OCC(C)(CC[C@@H]1OC3=O)C42` (stereo not given in full), the concentration for total growth inhibition (TGI) was 10.3 µM.

The compound `CN/N=C(/Cc1occc(=O)c1O)C(=O)Nc1ccccc1C` registered a concentration for total growth inhibition (TGI) above 100 µM.

The next assay has as its system K-562 leukemia. Put plainly: DTP human tumour cell line panel, 48 h.
`COc1cc(/C=N/NC(=O)c2ccc(C(F)(F)F)nc2Nc2ccc(Cl)cc2C)ccc1O`: the GI50 is 1.31 µM and the TGI was 7.17 µM.

As to `O=C1CC(c2ccc3c(c2)OCO3)Nc2ccccc21` (stereo not given), the GI50 was 3.33 µM and the TGI was above 100 µM.

With `O=C1/C(=C/c2ccccc2)CN(C(=O)C(Cl)(Cl)Cl)C/C1=C\c1ccccc1`, the total growth inhibition concentration (TGI) turned out to be 3.26 µM.

Consider `O=C1C(Cl)=C(Nc2cccc(Cl)c2)C(=O)N1Cc1ccc(Cl)cc1Cl`, for which the GI50 was 0.834 µM and the TGI is above 87.5 µM.

`COC1CCC(N2C(=O)CNc3ncc(-c4ccc(C(C)(C)O)nc4)nc32)CC1` (stereo not given): the GI50 is 2.28 µM and 0.77 µM; the total growth inhibition concentration (TGI) was above 100 µM.

In turn, `COC1CCC2C(NS(=O)(=O)c3ccc(C)cc3)CCCC2O1` (stereo not given) (tested in a mixture with another compound) returned a total growth inhibition concentration (TGI) of 27.8 µM. That is a double-digit micromolar value.

`NNC(=O)Nc1cccnc1` yielded a concentration for total growth inhibition (TGI) above 100 µM.

Turning to `Cc1cc(I)cc(CN(C)CCCCN2CCCCC2)c1O`, the GI50 is 4.03 µM and the TGI worked out at 17.1 µM.

For the compound `CC1=C(C(=O)NCc2ccccc2)C(/C=C/c2ccccc2)C(C(=O)NCc2ccccc2)=C(C)N1`, the TGI was above 100 µM.

Regarding `O=S1(=O)c2ccccc2NC(c2ccc3ccccc3c2)CC1c1ccccc1F` (stereo not given), the total growth inhibition concentration (TGI) is above 100 µM.

Regarding `C=C1C(=O)C23CC1CCC2C12CO[C@@H]4OCC(C)(CC[C@@H]1OC3=O)C42` (stereo not given in full), the concentration for total growth inhibition (TGI) is above 100 µM.

Regarding `CN/N=C(/Cc1occc(=O)c1O)C(=O)Nc1ccccc1C`, the TGI was above 100 µM.

A further assay concerns MALME-3M melanoma. Put plainly: DTP human tumour cell line panel, 48 h.
With `COc1cc(/C=N/NC(=O)c2ccc(C(F)(F)F)nc2Nc2ccc(Cl)cc2C)ccc1O`, the GI50 was 2.19 µM and the TGI amounted to 10.9 µM.

Consider `O=C1CC(c2ccc3c(c2)OCO3)Nc2ccccc21` (stereo not given), for which the GI50 was 14.5 µM and the concentration for total growth inhibition (TGI) was determined as 30.2 µM.

In turn, `O=C1/C(=C/c2ccccc2)CN(C(=O)C(Cl)(Cl)Cl)C/C1=C\c1ccccc1` yielded a TGI of 6.01 µM.

For `O=C1C(Cl)=C(Nc2cccc(Cl)c2)C(=O)N1Cc1ccc(Cl)cc1Cl`, the GI50 is 4.17 µM and the total growth inhibition concentration (TGI) worked out at 19 µM.

On to `COC1CCC(N2C(=O)CNc3ncc(-c4ccc(C(C)(C)O)nc4)nc32)CC1` (stereo not given), for which the GI50 was 0.228 µM and 0.0287 µM; the TGI was 2.8 µM and 0.352 µM.

For the compound `COC1CCC2C(NS(=O)(=O)c3ccc(C)cc3)CCCC2O1` (stereo not given) (tested in a mixture with another compound), the TGI is above 34.5 µM.

The compound `NNC(=O)Nc1cccnc1` displayed a total growth inhibition concentration (TGI) above 100 µM.

For the compound `Cc1cc(I)cc(CN(C)CCCCN2CCCCC2)c1O`, the GI50 is 12.7 µM and the TGI amounted to 28 µM.

Turning to `CC1=C(C(=O)NCc2ccccc2)C(/C=C/c2ccccc2)C(C(=O)NCc2ccccc2)=C(C)N1`, the concentration for total growth inhibition (TGI) was above 100 µM.

The compound `O=S1(=O)c2ccccc2NC(c2ccc3ccccc3c2)CC1c1ccccc1F` (stereo not given) registered a concentration for total growth inhibition (TGI) above 100 µM.

In turn, `C=C1C(=O)C23CC1CCC2C12CO[C@@H]4OCC(C)(CC[C@@H]1OC3=O)C42` (stereo not given in full) returned a TGI of 4.14 µM.

Compound `CN/N=C(/Cc1occc(=O)c1O)C(=O)Nc1ccccc1C` showed a TGI above 100 µM.
